Reference: a melting point compilation (Tetko et al.; mined from patent text by program, amines drawn as free bases though some values may be those of a salt)

| melting point [°C] | Structure (SMILES) |
| --- | --- |
| 97 to 99 | CCCc1ccc(C(=O)NCCc2cccs2)cc1 |
| 55 to 56 | CC(C)(O)Cc1cccc(C(F)(F)F)c1 |
| 68 to 69 | COC(=O)c1ccc(Cl)nc1OC |
| 166 to 168 | Cn1c(COc2ccc(CC3SC(=O)NC3=O)cc2)nc2ccc(Sc3ccccc3)nc21 (centres undefined) |
| 184 to 186 | Cc1nc2ccc(F)cc2c2c1ncn2C |
| > 300 | O=C(c1ccccc1)c1ccc(-c2cnn3c(O)ncnc23)cc1 |
| 163 to 166 | CN(C)c1ccc(Nc2ccccc2)cc1 |
| 128 to 130 | Cc1ccc(S(=O)(=O)NC(=O)C2C(=O)CC(CC(C)C)CC2=O)cc1 (centres undefined) |
| 170 to 174 | CC(C)OC(=O)N1CCC(c2ccc3nc(-c4ccc(S(C)(=O)=O)cc4F)oc3c2)CC1 |
| 60 to 61 | Cc1ccc(C=CCC#N)cc1 |
| 67 to 80 | CCOC(=O)CN1C(=O)C(=C(C)C)SC1=Nc1cc(-n2c(=O)cc(C(F)(F)F)n(C)c2=O)c(F)cc1Cl |
| 154 to 156 | O=c1ccoc(C(O)c2ccc(F)cc2)c1O (centres undefined) |
| 151 to 153 | CCCc1c(OCC(O)CSc2ccc(CC(=O)O)c(Cl)c2Cl)ccc(C(C)=O)c1O (centres undefined) |
| 260 to 261 | NC(N)=Nc1nc(-c2cccc(CCl)n2)cs1 |
| 151 to 156 | O=C1N(CC2CCCO2)c2ccccc2C12COc1cc3c(cc12)CCCO3 (centres undefined) |
| 38 | CCCCCc1ccc(-c2ccc(OCCCC)c(N)c2)cc1 |
| 93.9 | Nc1ccc2c(c1)COc1cc(Nc3ccc(C(F)(F)F)cc3N)ccc1C2=O |
| 129 to 130 | COc1cc(OC)c2c(C)c(CCCl)c(=O)oc2c1 |
| 107 to 108 | CC(C)COc1ccc(COc2ccc(CC(=O)O)cc2Cl)cc1 |
| 210 to 212 | CC1(C)CC(=O)c2c(nc(C3CCCC3)c(C(=O)c3ccc(C(F)(F)F)cc3)c2-c2ccc(F)c(F)c2)C1 |
| 159 to 160 | CCc1cc(NC(=O)C(CS)Cc2ccccc2)cc(C(=O)O)c1 (centres undefined) |
| 159 | Cc1cnc2cc(NS(=O)(=O)c3cccc(Cl)c3C)ccc2n1 |
| 207 to 208 | CCc1cc2[nH]ccc(=O)c2c(CC)n1 |
| 158 to 160 | CCc1cnc(OCCOc2ncnc(NS(=O)(=O)c3ccc(C(C)(C)C)cc3)c2Oc2cccc(OC)c2)nc1 |

| melting point [°C] | Structure (SMILES) |
| --- | --- |
| 76 to 83 | COc1ccc(C2(C)CCc3cc(OC)ccc3C2CCCCCCO)cc1 (centres undefined) |
| 96 | O=S(=O)(CC(Cl)(Cl)Cl)c1cc(Cl)ccc1Cl |
| 169 to 171 | CCCc1nc2c(N)nc3cc(-c4ccccc4)ccc3c2n1CCCONC(=O)C(C)C |
| 232 to 233 | O=C(Cc1ccc(OCc2ccccc2F)cc1)NC1(C(=O)O)Cc2ccc(-c3ccc(Cl)cc3)cc2C1 (centres undefined) |
| 91 to 94 | Cc1noc(NS(=O)(=O)c2ccccc2[N+](=O)[O-])c1C |
| 78 to 79 | CCCc1ccc(-c2nnc(SC)nn2)cc1 |
| 234 | CCCC1=C([N+](=O)[O-])C(c2cccc3c2OCCC3)c2c[nH]nc2N1 (centres undefined) |
| 108 to 110 | CSC1=C(c2ccc(O)cc2)C(=O)c2ccc(O)cc21 |
| 145 | Nc1ccccc1C=C1c2ccccc2CCc2ccccc21 |
| 66 | O=C(c1ccc(C2=CCCCC2)cc1)N1Cc2cccn2Cc2ccccc21 |
| 176 to 178 | CC(N=Cc1ccc(O)cc1)c1ccccc1 (single isomer, unassigned; (-)) |
| 141 to 143 | CSc1nc(NCc2ccc(-c3ccsc3)cc2)n2ncc(C(C)C)c2n1 |
| 198 to 199 | O=C(Nc1c[nH]nc1C(=O)NCc1ccco1)c1ccccn1 |
| 114 to 118 | CCCOc1cccc(C(=O)O)c1O |
| 188 | Cc1cc2c(N)c(C(=O)c3cc(F)ccc3F)sc2nc1C |
| 127 to 129 | COc1cc2c(cc1Br)-c1cc3c(n1CC2)C(=O)N(C(C)(C)C)CCCC3 |
| 302 to 308 | O=C(O)c1ccccc1CCc1n[nH]c2c1c(=O)n(-c1ccccc1)c1ncccc21 |
| 198 to 199 | Nc1nnc(SCC(=O)C23CC4CC(CC(C4)C2)C3)s1 |
| 53 to 55 | CC(=O)/C(=C(/Br)I)c1ccccc1 |
| 145 to 146 | O=c1c(Br)cn(-c2cccc(C(F)(F)F)c2)nc1-c1ccnn1-c1ccccc1 |
| 165 to 167 | COc1cc(SCc2sc(-c3ccc(C(F)(F)F)cc3)nc2C)c(C)cc1OCC(=O)O |
| 111 to 112 | Ic1cccc(OCc2ccc3ccccc3c2)c1 |
| 157 | CCOc1ccc2c(c1)C(C)(c1ccccc1Cl)C(=O)N2S(=O)(=O)c1ccc(C(=O)NC(C)(C)C)cc1 (centres undefined) |
| 76 to 78 | Cc1nc(C)c(N2N=C(c3ccc([N+](=O)[O-])cc3)c3cc4c(cc3CC2C)OCO4)o1 (centres undefined) |

| melting point [°C] | Structure (SMILES) |
| --- | --- |
| 240 to 247 | CC(C)c1ccc(-c2ccc3c(c2)C=C(C(=O)Nc2ccc(CN(C)C4CCOCC4)cc2)CCS3(=O)=O)cc1 |
| 94 to 96 | CC(C)(ON1C(C)(C)CC(OC(=O)CCCCCCCCC(=O)OC2CC(C)(C)N(OC(C)(C)c3ccccc3)C(C)(C)C2)CC1(C)C)c1ccccc1 |
| 129 to 130 | COC(=O)c1ccccc1-c1nc(COc2ccc(C=O)cc2OC)c(C)o1 |
| 182 to 184 | O=C(O)CNC(=O)c1ncc(-c2cccc(F)c2)cc1O |
| 187 to 189 | Cc1cc(CNC(=O)c2nc3n(c(=O)c2O)CCN3C)ccc1F |
| 232 | O=C(Nc1n[nH]c2c(F)cccc12)c1ccccc1 |
| 125 to 127 | COC(=O)c1nc(N(C)C)ccc1Oc1nc(OC)cc(OC)n1 |
| 184 | c1cn(Cc2ccc3[nH]c(C4CC4)nc3c2)cn1 |
| 77 to 92 | Clc1cc(N2CCCC2)nc(N2CCNCC2)n1 |
| 131 to 132 | COC(=O)c1ccc(OCCCN2CCC(C(O)(c3ccc(F)cc3)c3ccc(F)cc3)CC2)c(OC)c1 |
| 119 to 121 | CCOC(=O)c1c(N)c2c(n1C)N=CCN2 |
| 108 to 109 | CC(C)(C)OC(=O)N[C@H](C(=O)Br)c1ccccc1 |
| 124 | CCOC(=O)C1=C(N)NC(C)=C(C(=O)OC)C1c1cccc([N+](=O)[O-])c1 (centres undefined) |
| 164 to 165 | CCCCc1cn(CCC)c(=O)n1Cc1ccc(-c2ccccc2-c2nnn[nH]2)nc1 |
| 91 to 93 | O=[N+]([O-])c1cc(CCC(O)=S)cc(O)c1O |
| 299 | O=C(O)c1ccc(C(=O)Nc2cccc(Nc3nc(-c4cccnc4)cs3)c2)cc1 |
| 192 to 195 | CCOC(=O)c1cc(-c2ccccc2)n(-c2ccc(S(N)(=O)=O)cc2)n1 |
| 142 | O=C1C(O)=C(CC2CCCC(C(F)(F)F)C2)C(=O)c2ccccc21 (centres undefined) |
| 77 to 78.5 | CC(C)(C)C(OCc1ccc(Cl)cc1)c1cncnc1 (centres undefined) |
| 148 to 149 | COc1ccc(-c2cc(=O)c3ccc(OCCCBr)cc3o2)cc1OC |
| 69 to 71 | C=CCOc1cc(-c2ncnc(C(F)F)c2Cl)c(F)cc1Cl |
| 89 | COc1ccc(SC(C)(CC=C(C)C)C(=O)NO)cc1 (centres undefined) |
| 113 to 115 | COC(=O)C1=C(c2ccccc2)C(c2ccccc2)OC1=O (centres undefined) |
| 148 to 151 | Cc1nn(C)c(C)c1C(=O)Nc1ccc(C(C(F)(F)F)C(F)(F)F)c(CC(C)C)c1 |

| melting point [°C] | Structure (SMILES) |
| --- | --- |
| 201 to 203 | NC(=O)c1sc2ncnc(-c3cccc(NC(=O)Nc4cccc(C(F)(F)F)c4)c3)c2c1N |
| 185 to 186 | CCOC(=O)c1ncn(-c2ccc(C(F)(F)F)cc2N)c1C |
| 100 to 101 | COC(=O)C(C)Oc1ccc(Sc2cc(-n3nc(C)n(C(F)F)c3=O)c(Cl)cc2Cl)cc1 (centres undefined) |
| 195 to 203 | CN(CCN(C)c1ccnc2c(NC(=O)c3c(Cl)cccc3Cl)cccc12)C(=O)c1cccnc1 |
| 136 to 138 | CC(C)(C)OC(=O)N1C(=O)O[C@@H](c2cccc(Cl)c2)[C@H]1Cc1ccc(CC(F)(F)C(F)(F)F)cc1 (racemic) |
| 162 | Cc1cc(N)nc(CCc2nc3cc(-c4cccc(O)c4)cnc3[nH]2)c1 |
| 174 to 176 | Cc1ccc(N)cc1C(=O)NS(C)(=O)=O |
| 103 to 110 | NC1=NS(=O)N=C1NCCCN(Cc1ccncc1)c1ccccn1 (centres undefined) |
| 196 to 197 | CC(C)OC(=O)OCOC(=O)[C@H]1[C@@H]2CC[C@@](N)(C(=O)O)[C@@H]21 |
| 152 to 153 | Cc1nnc(-c2ccc3occ(-c4ccc(C(=O)N(C)C)c(F)c4)c3c2)o1 |
| 145 to 148 | Nc1ccccc1-c1ncn[nH]1 |
| 124 | CCOc1ccc(CN2C(=O)C(C)(c3ccccc3Cl)c3cc(Cl)ccc32)c(OC)c1 (centres undefined) |
| > 300 | O=c1[nH][nH]c(=O)c2c(O)c(-c3ccccc3)ncc12 |
| 129 to 130 | Cc1c(CO)sc2c(Br)cccc12 |
| 72.3 to 73.1 | CCOCC(C)Oc1ccc(COc2cnn(C(C)(C)C)c(=O)c2Cl)cc1 (centres undefined) |
| 121 to 123 | COc1ccc2c(Cc3c(Cl)cncc3Cl)nncc2c1C=CCCCc1ccccc1 |
| 187 | CCCCCc1c(C(=O)O)nn(-c2ccc(Cl)cc2Cl)c1-c1ccc(Cl)cc1 |
| 94 | CCSc1cccc(C)c1S(=O)(=O)NC(C)(C)C |
| 160 to 161 | C=C1c2ccccc2C=Cn2c(OC)nnc21 |
| 113 to 115 | CC(c1ccccc1)N1CC(CF)(C(=O)N(Cc2ccccc2)Cc2ccccc2)CC1=O (centres undefined) |
| 134 to 136 | O=C1c2ccccc2C(=O)N1Cc1cc(I)ccc1Cl |
| 130 to 132 | COc1cc([N+](=O)[O-])c(N)cc1C(=O)Oc1ccccc1 |
| 62 | Cc1ccc(S(=O)(=O)C(CCCCCc2cccc(C(F)(F)F)c2)C(=O)O)cc1 (centres undefined) |
| 162 to 163 | COc1cc2cn(N3C(C)CCCC3C)nc2cc1OC (centres undefined) |

| Structure (SMILES) | melting point [°C] |
| --- | --- |
| CC(=C(F)F)c1cn(-c2c(Cl)cc(C(F)(F)F)cc2Cl)nc1C#N | 66 to 68 |
| O=[N+]([O-])c1cc(F)ccc1N1CCNCC1 | 85 to 87 |
| CC1=C(N2CC2)C(=O)c2c([nH]c(CO)c2C)C1=O | 224 to 225 |
